According to ChEMBL document CHEMBL1201862, “PubChem BioAssay data set” (2004):
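Method: 48-hour compound exposure of cells in 96-well plates, five concentrations, linear interpolation of endpoints. GI50 marks 50% less growth.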 Active and inactive are the calls of the source. Rule as the data show it: active = GI50 up to about 1.1 µM and inactive = higher.

Columns and labels:
Test in all cases: DTP human tumour cell line panel, 48 h
786-0 = tested on: 786-0
A498 = tested on: A498
A549 = tested on: A549
ACHN = tested on: ACHN
CAKI-1 = tested on: CAKI-1
CCRF-CEM = tested on: CCRF-CEM
COLO 205 = tested on: COLO 205
DMS-114 = tested on: DMS-114
EKVX = tested on: EKVX
HCC 2998 = tested on: HCC 2998
HCT-116 = tested on: HCT-116
HCT-15 = tested on: HCT-15
HL-60 = tested on: HL-60
HOP-18 = tested on: HOP-18
HOP-62 = tested on: HOP-62
HOP-92 = tested on: HOP-92
HT-29 = tested on: HT-29
IGROV-1 = tested on: IGROV-1
K562 = tested on: K562
KM-20L2 = tested on: KM-20L2
KM12 = tested on: KM12
LOX IMVI = tested on: LOX IMVI
LXFL 529 = tested on: LXFL 529
M14 = tested on: M14
M19-MEL = tested on: M19-MEL
MOLT-4 = tested on: MOLT-4
Malme-3M = tested on: Malme-3M
NCI-H226 = tested on: NCI-H226
NCI-H23 = tested on: NCI-H23
NCI-H460 = tested on: NCI-H460
NCI-H522 = tested on: NCI-H522
OVCAR-3 = tested on: OVCAR-3
OVCAR-5 = tested on: OVCAR-5
OVCAR-8 = tested on: OVCAR-8
RPMI-8226 = tested on: RPMI-8226
RXF 393 = tested on: RXF 393
SF-268 = tested on: SF-268
SF-295 = tested on: SF-295
SF-539 = tested on: SF-539
SK-MEL-28 = tested on: SK-MEL-28
SK-MEL-5 = tested on: SK-MEL-5
SK-OV-3 = tested on: SK-OV-3
SN12C = tested on: SN12C
SNB-19 = tested on: SNB-19
SNB-75 = tested on: SNB-75
SR = tested on: SR
SW-620 = tested on: SW-620
TK-10 = tested on: TK-10
U-251 = tested on: U-251
UACC-257 = tested on: UACC-257
UACC-62 = tested on: UACC-62
UO-31 = tested on: UO-31
XF498 = tested on: XF498
DLD-1 = tested on: DLD-1
DU-145 = tested on: DU-145
OVCAR-4 = tested on: OVCAR-4
SK-MEL-2 = tested on: SK-MEL-2
SNB-78 = tested on: SNB-78

In the case of CS(=O)(=O)CC1=Nc2nnc(CCCCCCCc3nnc4n3C(=O)C(CS(C)(=O)=O)=N4)n2C1=O, the GI50 (786-0) is reported as > 100 µM (inactive), the GI50 (A498) is reported as > 100 µM (inactive) and the GI50 (A549) is reported as > 100 µM (inactive). The GI50 (ACHN) was > 100 µM (inactive), the GI50 (CAKI-1) was > 100 µM (inactive) and the GI50 (CCRF-CEM) was > 100 µM (inactive). For the same molecule, the GI50 (COLO 205) was > 100 µM (inactive), the GI50 (DMS-114) was > 100 µM (inactive) and the GI50 (EKVX) was > 100 µM (inactive). For the same molecule, the GI50 (HCC 2998) was > 100 µM (inactive), the GI50 (HCT-116) was > 100 µM (inactive) and the GI50 (HCT-15) was over 100 µM. For the same molecule, the GI50 (HL-60) was > 100 µM (inactive), the GI50 (HOP-18) was > 100 µM (inactive) and the GI50 (HOP-62) was > 100 µM (inactive). The GI50 (HOP-92) was > 100 µM (inactive), the GI50 (HT-29) was > 100 µM (inactive) and the GI50 (IGROV-1) was > 100 µM (inactive). For the same molecule, the GI50 (K562) was > 100 µM (inactive), the GI50 (KM-20L2) was > 100 µM (inactive) and the GI50 (KM12) was > 100 µM (inactive). For the same molecule, the GI50 (LOX IMVI) was > 100 µM (inactive), the GI50 (LXFL 529) was > 100 µM (inactive) and the GI50 (M14) was > 100 µM (inactive). For the same molecule, the GI50 (M19-MEL) was > 100 µM (inactive), the GI50 (MOLT-4) was > 100 µM (inactive) and the GI50 (Malme-3M) was > 100 µM (inactive). For the same molecule, the GI50 (NCI-H226) was > 100 µM (inactive), the GI50 (NCI-H23) was > 100 µM (inactive) and the GI50 (NCI-H460) was > 100 µM (inactive). For the same molecule, the GI50 (NCI-H522) was > 100 µM (inactive), the GI50 (OVCAR-3) was > 100 µM (inactive) and the GI50 (OVCAR-5) was > 100 µM (inactive). For the same molecule, the GI50 (OVCAR-8) was > 100 µM (inactive), the GI50 (RPMI-8226) was > 100 µM (inactive) and the GI50 (RXF 393) was > 100 µM (inactive). For the same molecule, the GI50 (SF-268) was > 100 µM (inactive), the GI50 (SF-295) was > 100 µM (inactive) and the GI50 (SF-539) was > 100 µM (inactive). For the same molecule, the GI50 (SK-MEL-28) was > 100 µM (inactive), the GI50 (SK-MEL-5) was > 100 µM (inactive) and the GI50 (SK-OV-3) was > 100 µM (inactive). For the same molecule, the GI50 (SN12C) was > 100 µM (inactive), the GI50 (SNB-19) was > 100 µM (inactive) and the GI50 (SNB-75) was > 100 µM (inactive). The GI50 (SR) was > 100 µM (inactive), the GI50 (SW-620) was > 100 µM (inactive) and the GI50 (TK-10) was > 100 µM (inactive). For the same molecule, the GI50 (U-251) was > 100 µM (inactive), the GI50 (UACC-257) was > 100 µM (inactive) and the GI50 (UACC-62) was > 100 µM (inactive). For the same molecule, the GI50 (UO-31) was > 100 µM (inactive) and the GI50 (XF498) was > 100 µM (inactive).
C[N+](C)(C)CC(=O)N/N=C/c1oc(-c2c(O)ccc3ccccc23)c(-c2c(O)ccc3ccccc23)c1[N+](=O)[O-] was tested, and the GI50 (786-0) was 19.9 µM (inactive), the GI50 (A498) was 16.9 µM (inactive) and the GI50 (A549) was 21.5 µM (inactive). For the same molecule, the GI50 (ACHN) was 3.31 µM (inactive), the GI50 (CAKI-1) was 24.7 µM (inactive) and the GI50 (CCRF-CEM) was 15.4 µM (inactive). For the same molecule, the GI50 (COLO 205) was 21.9 µM (inactive), the GI50 (DLD-1) was 14.1 µM (inactive) and the GI50 (DU-145) was 15.4 µM (inactive). For the same molecule, the GI50 (EKVX) was 21.9 µM (inactive), the GI50 (HCC 2998) was 16 µM (inactive) and the GI50 (HCT-116) was 12.2 µM (inactive). The GI50 (HL-60) was 18.5 µM (inactive), the GI50 (HOP-18) was 15.9 µM (inactive) and the GI50 (HOP-92) was 12.7 µM (inactive). The GI50 (HT-29) was 13.2 µM (inactive), the GI50 (IGROV-1) was 11 µM (inactive) and the GI50 (K562) was 12.6 µM (inactive). For the same molecule, the GI50 (KM-20L2) was 3.1 µM (inactive), the GI50 (KM12) was 11.5 µM (inactive) and the GI50 (LOX IMVI) was 11.6 µM (inactive). For the same molecule, the GI50 (LXFL 529) was 14.8 µM (inactive), the GI50 (M14) was 17.3 µM (inactive) and the GI50 (M19-MEL) was 20.4 µM (inactive). For the same molecule, the GI50 (MOLT-4) was 14.5 µM (inactive), the GI50 (Malme-3M) was 11.4 µM (inactive) and the GI50 (NCI-H226) was 17.4 µM (inactive). The GI50 (NCI-H23) was 16.4 µM (inactive), the GI50 (NCI-H460) was 19.5 µM (inactive) and the GI50 (NCI-H522) was 15.8 µM (inactive). The GI50 (OVCAR-3) was 16.3 µM (inactive), the GI50 (OVCAR-4) was 21.5 µM (inactive) and the GI50 (OVCAR-5) was 22.1 µM (inactive). For the same molecule, the GI50 (OVCAR-8) was 19.1 µM (inactive), the GI50 (RPMI-8226) was 27 µM (inactive) and the GI50 (RXF 393) was 11.2 µM (inactive). The GI50 (SF-268) was 12.4 µM (inactive), the GI50 (SF-295) was 17.1 µM (inactive) and the GI50 (SF-539) was 14.7 µM (inactive). The GI50 (SK-MEL-28) was 21.3 µM (inactive), the GI50 (SK-MEL-2) was 16.2 µM (inactive) and the GI50 (SK-MEL-5) was 8.87 µM (inactive). For the same molecule, the GI50 (SK-OV-3) was 14.2 µM (inactive), the GI50 (SN12C) was 24.2 µM (inactive) and the GI50 (SNB-19) was 28.2 µM (inactive). For the same molecule, the GI50 (SNB-75) was 14.7 µM (inactive), the GI50 (SR) was 15.2 µM (inactive) and the GI50 (SW-620) was 21.5 µM (inactive). The GI50 (TK-10) was 26.3 µM (inactive), the GI50 (U-251) was 15 µM (inactive) and the GI50 (UACC-257) was 18.5 µM (inactive). The GI50 (UACC-62) was 1.53 µM (inactive), the GI50 (UO-31) was 7.36 µM (inactive) and the GI50 (XF498) was 20.6 µM (inactive).
In the case of CC(=O)/C(=C\c1ccccc1O)C(=O)Nc1ccccc1C, the GI50 (786-0) is reported as 15.4 µM (inactive), the GI50 (A549) is reported as 20.5 µM (inactive) and the GI50 (ACHN) is reported as 17.5 µM (inactive). For the same molecule, the GI50 (CAKI-1) was 16 µM (inactive), the GI50 (CCRF-CEM) was 14.3 µM (inactive) and the GI50 (DLD-1) was 20.1 µM (inactive). For the same molecule, the GI50 (DMS-114) was 24.3 µM (inactive), the GI50 (EKVX) was 36 µM (inactive) and the GI50 (HCC 2998) was 15.7 µM (inactive). The GI50 (HCT-116) was 24.4 µM (inactive), the GI50 (HCT-15) was 14.1 µM and the GI50 (HL-60) was 9.64 µM (inactive). For the same molecule, the GI50 (HOP-18) was 40.2 µM (inactive), the GI50 (HOP-62) was 20.9 µM (inactive) and the GI50 (HOP-92) was 15.9 µM (inactive). For the same molecule, the GI50 (HT-29) was 16.9 µM (inactive), the GI50 (IGROV-1) was 25.9 µM (inactive) and the GI50 (K562) was 4.06 µM (inactive). The GI50 (KM12) was 17.2 µM (inactive), the GI50 (LOX IMVI) was 14.3 µM (inactive) and the GI50 (LXFL 529) was 22.3 µM (inactive). For the same molecule, the GI50 (M14) was 17.5 µM (inactive), the GI50 (M19-MEL) was 27.7 µM (inactive) and the GI50 (MOLT-4) was 9.84 µM (inactive). For the same molecule, the GI50 (Malme-3M) was 17.5 µM (inactive), the GI50 (NCI-H226) was 27.4 µM (inactive) and the GI50 (NCI-H23) was 17.7 µM (inactive). For the same molecule, the GI50 (NCI-H460) was 23.7 µM (inactive), the GI50 (NCI-H522) was > 10 µM (inactive) and the GI50 (OVCAR-3) was 25.7 µM (inactive). The GI50 (OVCAR-4) was 29.4 µM (inactive), the GI50 (OVCAR-5) was 21.2 µM (inactive) and the GI50 (OVCAR-8) was 31.7 µM (inactive). For the same molecule, the GI50 (RPMI-8226) was 15 µM (inactive), the GI50 (RXF 393) was 19.1 µM (inactive) and the GI50 (SF-268) was 26 µM (inactive). The GI50 (SF-295) was 23.2 µM (inactive), the GI50 (SF-539) was 18.5 µM (inactive) and the GI50 (SK-MEL-28) was 24.3 µM (inactive). The GI50 (SK-MEL-2) was 18.9 µM (inactive), the GI50 (SK-MEL-5) was 13.5 µM (inactive) and the GI50 (SK-OV-3) was 51.9 µM (inactive). The GI50 (SN12C) was > 10 µM (inactive), the GI50 (SNB-19) was 20.7 µM (inactive) and the GI50 (SNB-78) was 23.4 µM (inactive). The GI50 (SR) was 13.1 µM (inactive), the GI50 (SW-620) was 20.7 µM (inactive) and the GI50 (TK-10) was > 10 µM (inactive). The GI50 (U-251) was 8.85 µM (inactive), the GI50 (UACC-257) was 31.9 µM (inactive) and the GI50 (UACC-62) was 20 µM (inactive). For the same molecule, the GI50 (UO-31) was 16 µM (inactive) and the GI50 (XF498) was 13.9 µM (inactive).
